Laboratory results published in PMC8481536, “Wells–Dawson phosphotungstates as mushroom tyrosinase inhibitors: a speciation study” (Scientific Reports, 2021).

Assay: Charge density (q/m, charges per addenda metal ion) of POT anions
Type: physicochemical
Conditions: for Charge density q/m of the anion: Wells–Dawson POTs and their products; for Charge density q/m of POT product Hx[α2-P2W17O61](10−x)−, x = 3 / Charge density q/m of POT product Hx[α2-P2W17O61](10−x)−, x = 4: product formed from the educt at pH 6.8
Description: The charge density of POMs, expressed in number of charges (q) per addenda metal ions (m), is a criterion to characterize the chaotropic behavior of POMs (Table S6)[49]–[53]. […] The activity of [P2W18]^6−, [P2W17]^10− and [P2W15]^12− solutions correlates with the amount of the dominant monolacunary anion [α2-P^V2W^VI17O61]^10− in Na-citrate buffer at pH 6.8 (Fig. 3, Scheme S1). For the unprotonated form of the active monolacunary Wells–Dawson anion [α2-P^V2W^VI17O61]^10− the q/m ratio is 0.59 (Table 2), however, the protonation of this anion in neutral solutions has previously been shown by electrochemical analysis in combination with theoretical calculations[47],[55]. For POMs the proton affinity difference between the terminal and bridging oxygen is around 11 kcal mol^−1[56], proving that the four oxygen atoms surrounding the lacuna are much more basic than the bridging and terminal O atoms (Fig. 1B), and thus prone to protonation. Electrospray-ionization mass spectrometry (ESI–MS) has already been successfully used for the protonation states assignment of Wells–Dawson POTs containing different heteroatoms. Consequently, ESI–MS has been applied to investigate the protonation state of monolacunary [α2-P^V2W^VI17O61]^10−. When recording ESI–MS for POMs in Na-citrate buffer, the relative intensity of citrate anion signals is almost 100%, suppressing POM signals. […] The spectra recorded in both solvents show signals for NaH4[α2-P^V2W^VI17O61]^5- at 838.0 and NaKH3[α2-P^V2W^VI17O61]^5- at 845.6 m/z, while species with lower protonation states have not been detected (Fig. S19). Therefore, the monolacunary anion [α2-P^V2W^VI17O61]^10− is present as the three-fold protonated anion H3[α2-P^V2W^VI17O61]^7- with a charge density of 0.41 and the four-fold protonated anion H4[α2-P^V2W^VI17O61]^6− with a charge density of 0.35. The predominant species in [P2W12]^12− is the wheel-shaped [P^V8W^VI48O184]^40− (23%), which can be protonated to H16[P^V8W^VI48O184]^24−[58] q/m = 0.5. Due to the compositional complexity of the hexalacunary anion it is impossible to accurately correlate its activity with the POTs’ charge density.
10 Summary of POT charge densities of Keggin and Wells-Dawson POTs
In order to facilitate comparison of the inhibitory capacities of the Keggin and Wells-Dawson POT samples tested in our laboratory against AbPPO4 and to obtain a structure-activity correlation, the charge densities (anionic charge per W addenda atom) of the species present […]
the charge densities, the following stability windows for POTs can be identified:
1) intact closed clusters: q/m ≈ 0.33 – 0.50
Structures with higher charge densities were not analyzed. Structures with a q/m value lower than 0.33 are prone to hydrolysis or reduction under suitable conditions, both leading to an increase in charge density.
2) lacunary clusters: q/m = 0.35 – 0.45
Structures with lower charge densities were not analyzed. Structures with a q/m value higher than 0.45 achieve stabilization by taking up protons for charge compensation. However, too […]
these pathways result in a decrease in charge density.
Overall, the preferred stable charge densities at neutral pH of both the intact and lacunary POTs […]
for intact clusters. This seems to be an intrinsic POT property as a combined result of 1) the reactivity of lacunary oxygen sites and 2) the hydrolytic susceptibility to hydroxide anions in aqueous solution in competition with electrostatic repulsion with the anionic POT charge. […]
metal centers in their oxygen-bound environment.
The scenario is different when looking at the POT interaction with the enzyme AbPPO4. Among […]
values show a clear correlation to the q/m values, with the lowest charge density corresponding to the highest protein affinity. But going to the larger Wells-Dawson archetype, comparing the active lacunary species H [PVWVI O ]4- (Keggin) and H [α -PV WVI O ](10-x)- (x = 3 or 4) (Wells- […]
charge densities. As stated in the main text, the basic inhibition effect shown by the Wells- […]

| Substance | Charge density q/m of the anion | Charge density q/m of POT product Hx[α2-P2W17O61](10−x)−, x = 3 | Charge density q/m of POT product Hx[α2-P2W17O61](10−x)−, x = 4 | Charge density q/m of the anion (listed as H2[PV2WVI12O48]12-) | Charge density q/m of the anion (listed as H2[P^V2W^VI12O48]^12−) | Charge density q/m of the anion (listed as [PV2WVI15O56]12-) | Charge density q/m of the anion (listed as [P^V2W^VI15O56]^12−) |
| --- | --- | --- | --- | --- | --- | --- | --- |
| K10[α2-P^V2W^VI17O61]·20H2O [[P2W17]^10−] | 0.59 | 0.41 | 0.35 | – | – | – | – |
| K6[α/β-P^V2W^VI18O62]·14H2O [[P2W18]^6−] | 0.33 | 0.41 | 0.35 | – | – | – | – |
| (NH4)12[H2P^V2W^VI12O48]·24H2O [[P2W12]^12−] | – | – | – | 1.00 | 1 | – | – |
| K12[P^V2W^VI15O56]·24H2O [[P2W15]^12−] | – | 0.41 | 0.35 | – | – | 0.80 | 0.8 |
